According to the OligoGym collection:
Oligonucleotides are given in HELM: sugar(base)linkage, 5' to 3'; d 2'-deoxyribose, r ribose, m 2'-O-methylribose, p phosphate. ss, as = sense and antisense strand

These substances were tested against UBE2K (assay: reporter assay of Huesken 2005). Conditions: siRNA.
Further: test concentration or dose not given here.

Substance	normalised inhibition (eCFP-eYFP dual reporter)
RNA1{r(C)p.r(C)p.r(U)p.r(C)p.r(C)p.r(A)p.r(G)p.r(A)p.r(C)p.r(A)p.r(C)p.r(A)p.r(C)p.r(C)p.r(A)p.r(U)p.r(A)p.r(U)p.r(G)p.d(T)p.d(T)}|RNA2{r(C)p.r(A)p.r(U)p.r(A)p.r(U)p.r(G)p.r(G)p.r(U)p.r(G)p.r(U)p.r(G)p.r(U)p.r(C)p.r(U)p.r(G)p.r(G)p.r(A)p.r(G)p.r(G)p.d(T)p.d(C)}$$$RNA1{StrandType:ss}|RNA2{StrandType:as}$	66.9%
RNA1{r(C)p.r(U)p.r(G)p.r(A)p.r(A)p.r(A)p.r(G)p.r(A)p.r(U)p.r(C)p.r(A)p.r(A)p.r(U)p.r(G)p.r(G)p.r(G)p.r(C)p.r(A)p.r(G)p.d(T)p.d(T)}|RNA2{r(C)p.r(U)p.r(G)p.r(C)p.r(C)p.r(C)p.r(A)p.r(U)p.r(U)p.r(G)p.r(A)p.r(U)p.r(C)p.r(U)p.r(U)p.r(U)p.r(C)p.r(A)p.r(G)p.d(G)p.d(A)}$$$RNA1{StrandType:ss}|RNA2{StrandType:as}$	79.2%
RNA1{r(C)p.r(U)p.r(U)p.r(G)p.r(U)p.r(A)p.r(G)p.r(A)p.r(U)p.r(G)p.r(A)p.r(G)p.r(A)p.r(A)p.r(U)p.r(U)p.r(U)p.r(U)p.r(A)p.d(T)p.d(T)}|RNA2{r(U)p.r(A)p.r(A)p.r(A)p.r(A)p.r(U)p.r(U)p.r(C)p.r(U)p.r(C)p.r(A)p.r(U)p.r(C)p.r(U)p.r(A)p.r(C)p.r(A)p.r(A)p.r(G)p.d(A)p.d(T)}$$$RNA1{StrandType:ss}|RNA2{StrandType:as}$	91.3%
RNA1{r(G)p.r(A)p.r(A)p.r(A)p.r(U)p.r(G)p.r(U)p.r(U)p.r(C)p.r(A)p.r(A)p.r(A)p.r(C)p.r(A)p.r(G)p.r(A)p.r(C)p.r(A)p.r(G)p.d(T)p.d(T)}|RNA2{r(C)p.r(U)p.r(G)p.r(U)p.r(C)p.r(U)p.r(G)p.r(U)p.r(U)p.r(U)p.r(G)p.r(A)p.r(A)p.r(C)p.r(A)p.r(U)p.r(U)p.r(U)p.r(C)p.d(G)p.d(G)}$$$RNA1{StrandType:ss}|RNA2{StrandType:as}$	76.6%
RNA1{r(G)p.r(A)p.r(A)p.r(U)p.r(U)p.r(A)p.r(A)p.r(G)p.r(A)p.r(G)p.r(G)p.r(A)p.r(G)p.r(A)p.r(A)p.r(A)p.r(U)p.r(A)p.r(G)p.d(T)p.d(T)}|RNA2{r(C)p.r(U)p.r(A)p.r(U)p.r(U)p.r(U)p.r(C)p.r(U)p.r(C)p.r(C)p.r(U)p.r(C)p.r(U)p.r(U)p.r(A)p.r(A)p.r(U)p.r(U)p.r(C)p.d(T)p.d(G)}$$$RNA1{StrandType:ss}|RNA2{StrandType:as}$	74.2%
RNA1{r(G)p.r(A)p.r(C)p.r(A)p.r(C)p.r(A)p.r(C)p.r(C)p.r(A)p.r(U)p.r(A)p.r(U)p.r(G)p.r(A)p.r(A)p.r(G)p.r(G)p.r(A)p.r(G)p.d(T)p.d(T)}|RNA2{r(C)p.r(U)p.r(C)p.r(C)p.r(U)p.r(U)p.r(C)p.r(A)p.r(U)p.r(A)p.r(U)p.r(G)p.r(G)p.r(U)p.r(G)p.r(U)p.r(G)p.r(U)p.r(C)p.d(T)p.d(G)}$$$RNA1{StrandType:ss}|RNA2{StrandType:as}$	64.2%
RNA1{r(G)p.r(A)p.r(G)p.r(G)p.r(A)p.r(A)p.r(G)p.r(A)p.r(U)p.r(A)p.r(C)p.r(C)p.r(A)p.r(A)p.r(C)p.r(U)p.r(A)p.r(G)p.r(A)p.d(T)p.d(T)}|RNA2{r(U)p.r(C)p.r(U)p.r(A)p.r(G)p.r(U)p.r(U)p.r(G)p.r(G)p.r(U)p.r(A)p.r(U)p.r(C)p.r(U)p.r(U)p.r(C)p.r(C)p.r(U)p.r(C)p.d(C)p.d(T)}$$$RNA1{StrandType:ss}|RNA2{StrandType:as}$	79.3%
RNA1{r(G)p.r(A)p.r(G)p.r(G)p.r(A)p.r(G)p.r(A)p.r(A)p.r(A)p.r(U)p.r(A)p.r(G)p.r(C)p.r(A)p.r(G)p.r(G)p.r(A)p.r(C)p.r(C)p.d(T)p.d(T)}|RNA2{r(G)p.r(G)p.r(U)p.r(C)p.r(C)p.r(U)p.r(G)p.r(C)p.r(U)p.r(A)p.r(U)p.r(U)p.r(U)p.r(C)p.r(U)p.r(C)p.r(C)p.r(U)p.r(C)p.d(T)p.d(T)}$$$RNA1{StrandType:ss}|RNA2{StrandType:as}$	54.8%
RNA1{r(G)p.r(A)p.r(U)p.r(C)p.r(C)p.r(A)p.r(C)p.r(A)p.r(G)p.r(G)p.r(A)p.r(U)p.r(G)p.r(C)p.r(U)p.r(G)p.r(U)p.r(A)p.r(G)p.d(T)p.d(T)}|RNA2{r(C)p.r(U)p.r(A)p.r(C)p.r(A)p.r(G)p.r(C)p.r(A)p.r(U)p.r(C)p.r(C)p.r(U)p.r(G)p.r(U)p.r(G)p.r(G)p.r(A)p.r(U)p.r(C)p.d(A)p.d(T)}$$$RNA1{StrandType:ss}|RNA2{StrandType:as}$	67.6%
RNA1{r(G)p.r(A)p.r(U)p.r(G)p.r(C)p.r(U)p.r(G)p.r(U)p.r(A)p.r(G)p.r(U)p.r(A)p.r(G)p.r(C)p.r(A)p.r(A)p.r(A)p.r(U)p.r(C)p.d(T)p.d(T)}|RNA2{r(G)p.r(A)p.r(U)p.r(U)p.r(U)p.r(G)p.r(C)p.r(U)p.r(A)p.r(C)p.r(U)p.r(A)p.r(C)p.r(A)p.r(G)p.r(C)p.r(A)p.r(U)p.r(C)p.d(C)p.d(T)}$$$RNA1{StrandType:ss}|RNA2{StrandType:as}$	65.5%
RNA1{r(G)p.r(C)p.r(A)p.r(G)p.r(C)p.r(U)p.r(G)p.r(C)p.r(A)p.r(A)p.r(U)p.r(G)p.r(A)p.r(C)p.r(U)p.r(C)p.r(U)p.r(C)p.r(C)p.d(T)p.d(T)}|RNA2{r(G)p.r(G)p.r(A)p.r(G)p.r(A)p.r(G)p.r(U)p.r(C)p.r(A)p.r(U)p.r(U)p.r(G)p.r(C)p.r(A)p.r(G)p.r(C)p.r(U)p.r(G)p.r(C)p.d(C)p.d(C)}$$$RNA1{StrandType:ss}|RNA2{StrandType:as}$	47.4%
RNA1{r(G)p.r(C)p.r(C)p.r(A)p.r(G)p.r(A)p.r(U)p.r(G)p.r(A)p.r(U)p.r(C)p.r(C)p.r(A)p.r(C)p.r(A)p.r(G)p.r(G)p.r(A)p.r(U)p.d(T)p.d(T)}|RNA2{r(A)p.r(U)p.r(C)p.r(C)p.r(U)p.r(G)p.r(U)p.r(G)p.r(G)p.r(A)p.r(U)p.r(C)p.r(A)p.r(U)p.r(C)p.r(U)p.r(G)p.r(G)p.r(C)p.d(T)p.d(C)}$$$RNA1{StrandType:ss}|RNA2{StrandType:as}$	74.9%
RNA1{r(G)p.r(C)p.r(U)p.r(G)p.r(C)p.r(A)p.r(A)p.r(U)p.r(G)p.r(A)p.r(C)p.r(U)p.r(C)p.r(U)p.r(C)p.r(C)p.r(G)p.r(C)p.r(A)p.d(T)p.d(T)}|RNA2{r(U)p.r(G)p.r(C)p.r(G)p.r(G)p.r(A)p.r(G)p.r(A)p.r(G)p.r(U)p.r(C)p.r(A)p.r(U)p.r(U)p.r(G)p.r(C)p.r(A)p.r(G)p.r(C)p.d(T)p.d(G)}$$$RNA1{StrandType:ss}|RNA2{StrandType:as}$	87.1%
RNA1{r(G)p.r(C)p.r(U)p.r(G)p.r(U)p.r(A)p.r(G)p.r(U)p.r(A)p.r(G)p.r(C)p.r(A)p.r(A)p.r(A)p.r(U)p.r(C)p.r(A)p.r(G)p.r(U)p.d(T)p.d(T)}|RNA2{r(A)p.r(C)p.r(U)p.r(G)p.r(A)p.r(U)p.r(U)p.r(U)p.r(G)p.r(C)p.r(U)p.r(A)p.r(C)p.r(U)p.r(A)p.r(C)p.r(A)p.r(G)p.r(C)p.d(A)p.d(T)}$$$RNA1{StrandType:ss}|RNA2{StrandType:as}$	87.4%
